Test results from patent US9566290B2, “Boron-containing small molecules” (Anacor Pharmaceuticals, Inc., priority 2005, dated 2017).
In brackets after ≈: the same amount, converted by molar mass. Like-named read-outs stand apart in the source and are kept apart here. One block for each compound: values may come before it.

Tests used:
[1] = system: Saccharomyces cerevisiae strain ATCC 201388; assay: MIC (NCCLS M27, YPD or synthetic defined media), haploid parental strain; format: cell-based
Description: (§1) The haploid Saccharomyces cerevisiae strain ATCC 201388 was used in the selection of C10 resistant mutants. Spontaneous and EMS-induced resistant mutants were isolated from YPD agar plates containing 4×, 8×, 16×MIC of C10. All minimal inhibitory concentrations (MIC) were determined using NCCLS protocol M27 with the exception of using YPD or synthetic defined media. All yeast and molecular genetic manipulations were essentially performed as described by Guthrie C., et al., Methods in Enzymology, 350: Part B, (2002).
(§2) The minimal inhibitory concentration (MIC) was essentially performed following the NCCLS guidelines outlined in the M27 protocol with the exception of using YPD or synthetic defined media (SDM).

[2] = system: S. cerevisiae C10 resistant mutants (CDC60 editing domain mutations); assay: MIC (NCCLS M27), spontaneous and EMS induced C10 resistant mutants; format: cell-based, Saccharomyces cerevisiae
Description: as §1
Resistant mutants appeared after 2 d incubation at 30° C. Frequency of resistance was determined by dividing the number of resistant mutants by the total number of cells plated as determined by plating dilutions of the overnight culture on YPD plates.
A 2.5 mL of the overnight culture, which was grown in YPD media, was centrifuged at 700×g for 5 minutes. The cell pellet was resuspended in 10 mL 50 mM potassium phosphate buffer, pH 7.0. The cell suspension was centrifuged again and the cell pellet was resuspended in phosphate buffer to obtain a cell density of 5×10^7 cells/mL as determined by counting the cells using a Petroff Hausser Counting Chamber (Horsham, Pa. USA). The cell suspension was shaken with 300 μL of EMS (Alfa Aesar, Ward Hill, Mass., USA) for 30 min. at 30° C. The mutagenesis was stopped by adding 10% (w/v) sodium thiosulfate (Sigma-Aldrich, St. Louis, Mo., USA), and the cells were pelleted by centrifugation at 700×g for 5 min. and resuspended in 1 mL sterile H2O. This was repeated once more before the cells were plated on YPD agar plates containing 1.6 μg/mL of C10.
as §2

[3] = format: in vitro ADME, human
Description: C10, 5-fluoro-1,3-dihydro-1-phenyl-2,1-benzoxaborole, C1, and 5-fluoro-1,3-dihydro-1-(3-hydroxymethylphenyl)-2,1-benzoxaborole, formulated at 10% w/v in ethanol, were tested. A single aliquot (10 μl) of each formulation was dosed to the top of human nail plates using the nail penetration procedure described below, and allowed to stand for 3-days. The dosed area was washed, and then the cotton ball bed supporting the nail and the nail samples were collected at the end of the incubation period, stored at 4° C. and analyzed for drug using LC/MS/MS.
Details of the nail incubation have been previously described^9, 10. […] The supporting cotton ball under the nail was wetted by normal saline providing moisture for the nail plate, and the degree of hydration was monitored and controlled during the experiment. […]
LC/MS/MS (API3000, Applied Biosystems, Foster City, Calif.) was used to quantitate the amounts of non-radiolabeled oxaboroles, C10, 5-fluoro-1,3-dihydro-1-phenyl-2,1-benzoxaborole, C1, and 5-fluoro-1,3-dihydro-1-(3-hydroxymethylphenyl)-2,1-benzoxaborole in samples from the nail penetration studies. […] After centrifugation, the filtrate from the cotton ball samples was transferred to autosampler vials and analyzed by LC/MS/MS. […]

[4] = system: S. cerevisiae ATCC201388 bearing pRS425 or CDC60 on pRS425; assay: MIC with over-expression of wild type CDC60; format: cell-based, Saccharomyces cerevisiae; settings: Saccharomyces cerevisiae
Excerpt: as §2
A 4.0 kb BamH I-Sal I DNA fragment containing the entire CDC60 open reading frame (ORF) and 700 bp of upstream sequence was amplified using KOD DNA polymerase, S. cerevisiae genomic DNA (Novagen, Madison, Wis., USA), and the primers GAGGGATCCGGTTAGTTTTAGTTCGCGAGTGACCTG and GAGGTCGACGATTTCTGGTTGCTGTTTATTGATCTT (Operon, Alameda, Calif., USA). This DNA fragment was then cloned into the […] multi-copy plasmid pRS425, and transformed into S. cerevisiae ATCC201388 (Gietz, R D et al., Methods in Enzymology 305: 87-96 (2002)).

[5] = Saccharomyces cerevisiae, ATCC201388, Table 2, ATCC201388, read-out: MIC
[6] = Saccharomyces cerevisiae, Table 2, C10 resistant mutant (C)
[7] = Saccharomyces cerevisiae, Table 2, C10 resistant mutant (G)
[8] = Saccharomyces cerevisiae, Table 2, C10 resistant mutant (H)
[9] = Table 2, C10 resistant mutant (C)
[10] = Table 2, C10 resistant mutant (G)
[11] = Table 2, C10 resistant mutant (H)

Compound: C[C@@H]1[C@H](O)[C@@H](C)/C=C/C=C/C=C/C=C/C=C/C=C/C=C/[C@H](O[C@@H]2O[C@H](C)[C@@H](O)[C@H](N)[C@@H]2O)C[C@@H]2O[C@](O)(C[C@@H](O)C[C@@H](O)[C@H](O)CC[C@@H](O)C[C@@H](O)CC(=O)O[C@H]1C)C[C@H](O)[C@H]2C(=O)O [Amphotericin B]
MIC ([1]; Table 2, ATCC201388): 0.125 µg/mL (≈ 0.135 µM)
resistance of C10 resistant mutants to other antifungals, in words [2]: not resistant

melting point: 117 to 120 °C
Compound: CSc1ccc(Sc2ccc3c(c2)B(O)OC3)cc1 [C94, 6-(4-(methylthio)phenylthio)benzo[c][1,2]oxaborol-1(3H)-ol]

melting point: 139 to 144 °C
Compound: Cc1ccc(Sc2ccc3c(c2)B(O)OC3)cc1 [C95, 6-(p-tolylthio)benzo[c][1,2]oxaborol-1(3H)-ol]

melting point: 147 to 150 °C
Compound: N#Cc1cccc(COc2ccc3c(c2)COB3O)c1 [C96, 3-((1-hydroxy-1,3-dihydrobenzo[c][1,2]oxaborol-5-yloxy)methyl)benzonitrile]

Compound: C/C=C/C/C=C/CCC(=O)[C@H]1O[C@H]1C(N)=O [Cerulenin]
MIC ([1]; Saccharomyces cerevisiae, ATCC201388, Table 1, haploid strain ATCC201388, read-out: MIC): 1 µg/mL (≈ 4.48 µM)
MIC [1, 5]: 0.5 µg/mL (≈ 2.24 µM)
resistance of C10 resistant mutants to other antifungals, in words [2]: not resistant
MIC ([2]; Saccharomyces cerevisiae, Table 1, mutant (A), CDC60 N415D): 0.5 µg/mL (≈ 2.24 µM)
MIC ([2]; Saccharomyces cerevisiae, Table 1, mutant (B), CDC60 R316I): 0.5 µg/mL (≈ 2.24 µM)
MIC ([2]; Saccharomyces cerevisiae, Table 1, mutant (C), CDC60 C326F): 0.5 µg/mL (≈ 2.24 µM)
MIC ([2]; Saccharomyces cerevisiae, Table 1, mutant (D), CDC60 G405V): 0.5 µg/mL (≈ 2.24 µM)
MIC ([2]; Saccharomyces cerevisiae, Table 1, mutant (E), CDC60 C326R): 0.5 µg/mL (≈ 2.24 µM)
MIC ([2]; Saccharomyces cerevisiae, Table 1, mutant (F), CDC60 D487G): 0.5 µg/mL (≈ 2.24 µM)
MIC ([2]; Saccharomyces cerevisiae, Table 1, mutant (G), CDC60 L315V): 0.5 µg/mL (≈ 2.24 µM)
MIC ([2]; Saccharomyces cerevisiae, Table 1, mutant (H), CDC60 T314M): 0.5 µg/mL (≈ 2.24 µM)
MIC ([2]; Saccharomyces cerevisiae, Table 1, mutant (I), CDC60 S416L): 1 µg/mL (≈ 4.48 µM)
MIC ([2]; Saccharomyces cerevisiae, Table 1, mutant (J), CDC60 D487N): 1 µg/mL (≈ 4.48 µM)
MIC ([2]; Saccharomyces cerevisiae, Table 1, mutant (K), CDC60 T319I): 1 µg/mL (≈ 4.48 µM)
MIC [2, 6]: 0.5 µg/mL (≈ 2.24 µM)
MIC [2, 7]: 0.5 µg/mL (≈ 2.24 µM)
MIC [2, 8]: 0.5 µg/mL (≈ 2.24 µM)

penetration of the nail plate, in words [3]: penetrates the nail plate poorly
Compound: Fc1ccc2c(c1)COB2c1ccccc1 [Compound 3, 5-fluoro-1,3-dihydro-1-phenyl-2,1-benzoxaborole]

Compound: C[C@@H]1C[C@@H]([C@H](O)CC2CC(=O)NC(=O)C2)C(=O)[C@@H](C)C1 [Cyclohexamide]
MIC ([1]; Table 2, ATCC201388): <0.06 µg/mL
resistance of C10 resistant mutants to other antifungals, in words [2]: not resistant
MIC [2, 9]: <0.06 µg/mL
MIC [2, 10]: <0.06 µg/mL
MIC [2, 11]: <0.06 µg/mL

Compound: OC(Cn1cncn1)(Cn1cncn1)c1ccc(F)cc1F [Fluconazole, reference compound]
MIC ([4]; ATCC201388, CDC60 on pRS425 (20 copies)): 2 µg/mL (≈ 6.53 µM)
MIC ([4]; ATCC201388, pRS425 Plasmid control): 2 µg/mL (≈ 6.53 µM)

Compound: CCC(C)n1ncn(-c2ccc(N3CCN(c4ccc(OCC5COC(Cn6cncn6)(c6ccc(Cl)cc6Cl)O5)cc4)CC3)cc2)c1=O (stereo not drawn) [Itraconazole]
MIC [1, 5]: 0.125 µg/mL (≈ 0.177 µM)
MIC [2, 6]: 0.125 µg/mL (≈ 0.177 µM)
MIC [2, 7]: 0.125 µg/mL (≈ 0.177 µM)
MIC [2, 8]: 0.125 µg/mL (≈ 0.177 µM)

Compound: C[C@@H]([C@H](N)C(=O)N[C@H](C(=O)O)[C@H]1O[C@@H](n2ccc(=O)[nH]c2=O)[C@H](O)[C@@H]1O)[C@H](O)c1ccc(O)cn1 [Nikkomycin Z]
MIC ([1]; Table 2, ATCC201388): 64 µg/mL (≈ 129 µM)
resistance of C10 resistant mutants to other antifungals, in words [2]: not resistant
MIC [2, 9]: 64 µg/mL (≈ 129 µM)
MIC [2, 10]: 64 µg/mL (≈ 129 µM)
MIC [2, 11]: 64 µg/mL (≈ 129 µM)

Compound: CN(C/C=C/C#CC(C)(C)C)Cc1cccc2ccccc12 [Terbinafine]
MIC [1, 5]: 4 µg/mL (≈ 13.7 µM)
resistance of C10 resistant mutants to other antifungals, in words [2]: not resistant
MIC [2, 6]: 4 µg/mL (≈ 13.7 µM)
MIC [2, 7]: 4 µg/mL (≈ 13.7 µM)
MIC [2, 8]: 4 µg/mL (≈ 13.7 µM)

Compound: Aculeacin A
MIC ([1]; Table 2, ATCC201388): 4 µg/mL
resistance of C10 resistant mutants to other antifungals, in words [2]: not resistant
MIC [2, 9]: 4 µg/mL
MIC [2, 10]: 4 µg/mL
MIC [2, 11]: 4 µg/mL

Compound: Tunicamycin
MIC ([1]; Table 2, ATCC201388): 8 µg/mL
resistance of C10 resistant mutants to other antifungals, in words [2]: not resistant
MIC [2, 9]: 8 µg/mL
MIC [2, 10]: 8 µg/mL
MIC [2, 11]: 8 µg/mL
